Data reported in the supplement of paper PMC11451515.

Test system: SEM cells
Test: cell viability relative to DMSO control; higher = less cytotoxic
Conditions: 48 h
Procedure, shortened: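 Before seeding, each leukemia line was adapted for at least four passages in each medium. NOMO1 or SEM cells (500 cells/well) and P12-Ichikawa cells (1000 cells/well) went into 1536-well plates at 5 μl, then received library compounds in DMSO by pin dosing across 11 threefold concentrations, 47 μM to 0.79 nM. Readout was CellTiter-Glo One luminescence after 48 h at 37°C, and viability is given as a per-plate percentage of DMSO wells, with cell-free wells as background.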

[1] = HPLM + 10% dialyzed FBS, 0.000781 µM
[2] = HPLM + 10% dialyzed FBS, 0.00234 µM
[3] = HPLM + 10% dialyzed FBS, 0.00702 µM
[4] = HPLM + 10% dialyzed FBS, 0.0211 µM
[5] = HPLM + 10% dialyzed FBS, 0.0632 µM
[6] = HPLM + 10% dialyzed FBS, 0.19 µM
[7] = HPLM + 10% dialyzed FBS, 0.569 µM
[8] = HPLM + 10% dialyzed FBS, 1.71 µM
[9] = HPLM + 10% dialyzed FBS, 5.12 µM
[10] = HPLM + 10% dialyzed FBS, 15.4 µM
[11] = HPLM + 10% dialyzed FBS, 46.1 µM
[12] = RPMI 5 mM glucose + 10% FBS, 0.000781 µM
[13] = RPMI 5 mM glucose + 10% FBS, 0.00234 µM
[14] = RPMI 5 mM glucose + 10% FBS, 0.00702 µM
[15] = RPMI 5 mM glucose + 10% FBS, 0.0211 µM
[16] = RPMI 5 mM glucose + 10% FBS, 0.0632 µM
[17] = RPMI 5 mM glucose + 10% FBS, 0.19 µM
[18] = RPMI 5 mM glucose + 10% FBS, 0.569 µM
[19] = RPMI 5 mM glucose + 10% FBS, 1.71 µM
[20] = RPMI 5 mM glucose + 10% FBS, 5.12 µM
[21] = RPMI 5 mM glucose + 10% FBS, 15.4 µM
[22] = RPMI 5 mM glucose + 10% FBS, 46.1 µM
[23] = RPMI 5 mM glucose + 10% dialyzed FBS, 0.000781 µM
[24] = RPMI 5 mM glucose + 10% dialyzed FBS, 0.00234 µM
[25] = RPMI 5 mM glucose + 10% dialyzed FBS, 0.00702 µM
[26] = RPMI 5 mM glucose + 10% dialyzed FBS, 0.0211 µM
[27] = RPMI 5 mM glucose + 10% dialyzed FBS, 0.0632 µM
[28] = RPMI 5 mM glucose + 10% dialyzed FBS, 0.19 µM
[29] = RPMI 5 mM glucose + 10% dialyzed FBS, 0.569 µM
[30] = RPMI 5 mM glucose + 10% dialyzed FBS, 1.71 µM
[31] = RPMI 5 mM glucose + 10% dialyzed FBS, 5.12 µM
[32] = RPMI 5 mM glucose + 10% dialyzed FBS, 15.4 µM
[33] = RPMI 5 mM glucose + 10% dialyzed FBS, 46.1 µM

Row | Structure (SMILES) | cell viability [1] | cell viability [2] | cell viability [3] | cell viability [4] | cell viability [5] | cell viability [6] | cell viability [7] | cell viability [8] | cell viability [9] | cell viability [10] | cell viability [11] | cell viability [12] | cell viability [13] | cell viability [14] | cell viability [15] | cell viability [16] | cell viability [17] | cell viability [18] | cell viability [19] | cell viability [20] | cell viability [21] | cell viability [22] | cell viability [23] | cell viability [24] | cell viability [25] | cell viability [26] | cell viability [27] | cell viability [28] | cell viability [29] | cell viability [30] | cell viability [31] | cell viability [32] | cell viability [33]
1 | O=C(Nc1ccccc1-c1cn2c(CN3CCNCC3)csc2n1)c1cnc2ccccc2n1 | 61.2% | 97.4% | 109% | 98.1% | 81.4% | 81.1% | 90.5% | 67.5% | 72.5% | 48.3% | 1.98% | 71.4% | 107% | 95.2% | 103% | 76% | 84.4% | 94.8% | 67.4% | 54.3% | 59.2% | 2.64% | 56.4% | 93.2% | 84.5% | 86.5% | 65.4% | 80.1% | 79.5% | 52.6% | 53.9% | 37.4% | 2.76%
2 | CC(C)C(=O)Oc1ccc(CO)cc1[C@H](CCN(C(C)C)C(C)C)c1ccccc1 | 34.1% | 81.6% | 97.9% | 80.4% | 74.6% | 83.3% | 82.8% | 81% | 82.3% | 76.2% | 72.4% | 32.5% | 92.1% | 91.8% | 99.3% | 74.4% | 92.5% | 81.7% | 67.5% | 101% | 80.3% | 89.5% | 35.5% | 91.9% | 92.2% | 95.3% | 74.9% | 89.4% | 97.8% | 85.7% | 114% | 96.2% | 99.8%
3 | Nc1nc(N)c2nc(CNc3ccc(C(=O)NC(CCC(=O)O)C(=O)O)cc3)cnc2n1 (stereo unspecified) | 104% | 114% | 110% | 127% | 57.2% | 36.6% | 39.5% | 45.6% | 48.6% | 41.8% | 46.5% | 111% | 115% | 120% | 110% | 92.2% | 56.5% | 83% | 76.4% | 99.7% | 86.5% | 87.5% | 96.2% | 103% | 104% | 104% | 30.5% | 23.7% | 23.1% | 23.1% | 28.8% | 29.6% | 23.8%
4 | C=CC(=O)N1CCC[C@@H](n2nc(-c3ccc(Oc4ccccc4)cc3)c3c(N)ncnc32)C1 |  |  |  |  |  |  |  |  |  |  |  | 95.1% | 127% | 112% | 99% | 128% | 110% | 102% | 99.7% | 103% | 79.9% | 33.5% |  |  |  |  |  |  |  |  |  |  | 
5 | CC[C@H](C)[N]1C=C(C)C2=C1C=C(C=C2C(=O)NC\C3=C(C)\C=C(\C)NC3=O)C4=CC=C(N=C4)N5CCNCC5 | 106% | 104% | 112% | 117% | 114% | 106% | 112% | 117% | 113% | 113% | 99% | 83.5% | 105% | 108% | 102% | 113% | 108% | 99% | 109% | 96.5% | 95% | 101% | 101% | 120% | 115% | 108% | 110% | 103% | 107% | 100% | 107% | 116% | 104%
6 | O=C(Nc1ccc(F)c(C(F)(F)F)c1)Nc1nnc(-c2ccncc2)s1 |  |  |  |  |  |  |  |  |  |  |  | 99.6% | 112% | 104% | 103% | 107% | 105% | 88.9% | 104% | 105% | 106% | 92.8% | 121% | 114% | 124% | 113% | 115% | 117% | 121% | 104% | 113% | 125% | 109%
7 | NC(=O)c1ccc(I)c([N+](=O)[O-])c1 | 104% | 127% | 108% | 126% | 126% | 130% | 133% | 124% | 123% | 117% | 123% | 106% | 124% | 131% | 137% | 137% | 143% | 145% | 156% | 120% | 104% | 111% | 97.6% | 113% | 124% | 118% | 123% | 112% | 116% | 131% | 115% | 103% | 99.8%
8 | CCN1\C=C(\C(O)=O)C(=O)C2=CC=C(C)N=C12 | 72.7% | 70.2% | 82.7% | 87.4% | 99% | 97.5% | 92% | 94.8% | 96.4% | 19.8% | 97.3% | 86% | 93.3% | 102% | 97.1% | 93% | 108% | 90.9% | 98.9% | 103% | 13.6% | 76.5% | 86.9% | 82.3% | 103% | 97.9% | 86.3% | 111% | 103% | 96.6% | 66% | 21.3% | 78.5%
